Reference: publication PMC6681416, “Novel Derivatives of Deoxycholic Acid Bearing Linear Aliphatic Diamine and Aminoalcohol Moieties and their Cyclic Analogs at the C3 Position: Synthesis and Evaluation of Their In Vitro Antitumor Potential” (Molecules, 2019)
Like-named read-outs stand apart in the source and are kept apart here.

Legend:
HuTu-80 cells [1] = test: cells; format: cell-based; conditions: ratio IC50 hFF3 / IC50 HuTu-80
Text: (§1) According to our previous data and data published by other research groups, chemical transformations of bile acids can greatly improve their antitumor potential. Thus, as the first step of evaluation of the biological activities of our novel DCA derivatives we assessed their effects on tumor cell viability. The cytotoxicity of the compounds was investigated with respect to a panel of cultured cell lines, including human duodenal HuTu-80, hepatocellular HepG2, cervical KB-3-1 and lung A549 carcinomas as well as murine macrophage RAW264.7 and non-transformed human fibroblasts hFF3 by MTT assay.
(§2) Human duodenal carcinoma HuTu-80 cells, human hepatocellular carcinoma HepG2 cells, human cervical carcinoma KB-3-1 cells, human lung carcinoma A549 cells were obtained from the Russian Cell Culture Collection (Institute of Cytology, RAS, St. Petersburg, Russia). Non-transformed human fibroblasts hFF3 were kindly provided by Dr. Olga Koval (Institute of Chemical Biology and Fundamental Medicine, SB RAS, Novosibirsk, Russia). RAW264.7 macrophages were kindly provided by Prof. Dr. Dmitry Kuprash (Engelhardt Institute of Molecular Biology, RAS, Moscow, Russia). The cells were cultured in DMEM (Sigma-Aldrich Inc., St. Louis, MO, USA) supplemented with 10% (v/v) heat-inactivated fetal bovine serum (FBS) (BioloT, St. Petersburg, Russia), 100 U/mL penicillin (ICN Biomedicals Inc., Costa Mesa, CA, USA), 100 µg/mL streptomycin and 0.25 µg/mL amphotericin; additionally, in the case of RAW264.7 cells, concentration of glucose in the medium was increased up to 4.5 mg/mL. The cells were incubated at 37 °C in 5% CO2 and 95% air (hereafter referred to as standard conditions). DCA derivatives were dissolved in DMSO to yield stock solutions of 10 mmol/L and stored at −20 °C prior to use.
(§3) Cells were seeded in triplicate in 96-well plates at a density of 5 × 10^3 (HuTu-80, HepG2, KB-3-1, hFF3), 10^4 (A549) or 5 × 10^4 (RAW264.7) cells per well. Cells were incubated under standard conditions for 24 h and then they were treated with varying doses of investigated derivatives for subsequent 24 h. Then 10 µL of MTT solution (5 mg/mL) were added to each wells and cells were incubated for an additional 2 h under standard conditions. The crystals of formazan forming within live cells were solubilized with DMSO and the absorbance was measured in a Multiscan RC plate reader (Thermo LabSystems, Helsinki, Finland) at a test and reference wavelengths of 570 nm and 620 nm, respectively. […] To perform SAR analysis, hierarchical clustering of compounds based on their IC50 values was fulfilled with Euclidean distance by using the Morpheus tool (https://software.broadinstitute.org/morpheus/), a platform designed for visualization and analysis of data in a matrix format. Heatmap, containing compounds’ SI values, were constructed by using the Excel 2010 software (Microsoft, Redmond, WA, USA). In order to reveal whether ROS participate in the induction of cell death by compound 9, HuTu-80 cells cultured in 96-well plate were pretreated by NAC at 2 mM for 1 h. Thereafter, the medium was replaced by fresh medium with compound 9 at 8 µM and the cells were incubated with subsequent 24 h under standard conditions. After this time period, the curves of cytotoxicity of compound 9 in the presence or absence of NAC were compared.

HepG2 cells [2] = tested on: HepG2 cells; parameters: method as in PMID 28688958, PMID 26037611, PMID 28887170; conditions: MTT, 24 h; values marked by asterisk; ref [21],[22],[23]; read-out: IC50 HepG2 (liver); cited from earlier work
A549 cells [3] = tested on: A549 cells; parameters: method as in PMID 28688958, PMID 26037611, PMID 28887170; conditions: MTT, 24 h; values marked by asterisk; ref [21],[22],[23]; read-out: IC50 A549 (lung); cited from earlier work
A549 cells [4] = test: MTT cytotoxicity assay, A549; format: cell-based, human; conditions: ratio IC50 hFF3 / IC50 A549
Text: as §1, §2, §3

KB-3-1 cells [5] = test: MTT cytotoxicity assay, KB-3-1; format: cell-based, human; conditions: ratio IC50 hFF3 / IC50 KB-3-1
Text: as §1, §2, §3

KB-3-1 cells [6] = tested on: KB-3-1 cells; parameters: method as in PMID 28688958, PMID 26037611, PMID 28887170; conditions: MTT, 24 h; values marked by asterisk; ref [21],[22],[23]; read-out: IC50 KB3-1 (cervix); cited from earlier work
HepG2 cells [7] = test: MTT cytotoxicity assay, HepG2; format: cell-based, human; conditions: ratio IC50 hFF3 / IC50 HepG2
Text: as §1, §2, §3

RAW264.7 macrophages = test: MTT cytotoxicity assay, RAW264.7; format: cell-based, murine; conditions: for IC50: Mus musculus, RAW264.7, MTT, 24 h, read-out: IC50 RAW264.7 (macrophage); for Selectivity index RAW264: ratio IC50 hFF3 / IC50 RAW264.7
Text: as §1, §2, §3

HuTu-80 cells [8] = tested on: HuTu-80 cells; parameters: method as in PMID 28688958, PMID 26037611, PMID 28887170; conditions: MTT, 24 h; values marked by asterisk; ref [21],[22],[23]; read-out: IC50 HuTu-80 (duodenum); cited from earlier work
[9] = tested on: panel of cultured cell lines (HuTu-80, HepG2, KB-3-1, A549, RAW264.7, hFF3); parameters: method as in PMID 28688958, PMID 26037611, PMID 28887170; conditions: MTT, 24 h; summary of Table 1 values marked by asterisk; ref [21],[22],[23]; read-out: IC50, range or lowest value over tested cell lines; cited from earlier work
[10] = tested on: NO synthesis by IFNγ-activated RAW264.7 cells; test: Inhibition of NO production by stimulated macrophages (Griess); format: cell-based, murine; conditions: Mus musculus, read-out: IC50NO
Description: RAW264.7 cells were seeded in triplicate in 96-well plates at a density of 5 × 10^4 cells/well and incubated under standard conditions for 24 h. The cells were treated with 20 ng/mL of murine recombinant IFNγ (GIBCO, Gaithersburg, MD, USA), with or without (control) compounds at various concentrations for 24 h. The level of NO production was evaluated by determining the nitrite concentration in culture medium with a Griess Reagent System (Promega, Madison, WI, USA). The IC50^NO value was calculated as the derivative concentration required to decrease NO production to 50% of the non-treated control.

[11] = tested on: non-transformed human fibroblasts hFF3; parameters: method as in PMID 28688958, PMID 26037611, PMID 28887170; conditions: MTT, 24 h; values marked by asterisk; ref [21],[22],[23]; read-out: IC50 hFF3 (fibroblast); cited from earlier work

Compound	Selectivity index HuTu-80 (HuTu-80 cells [1])	IC50 (HepG2 cells [2]) [µM]	IC50 (A549 cells [3]) [µM]	Selectivity index A549 (A549 cells [4])	Selectivity index KB-3-1 (KB-3-1 cells [5])	IC50 (KB-3-1 cells [6]) [µM]	Selectivity index HepG-2 (HepG2 cells [7])	IC50 (RAW264.7 macrophages) [µM]	Selectivity index RAW264 (RAW264.7 macrophages)	IC50 (HuTu-80 cells [8]) [µM]	IC50 [9] [µM]	IC50 ([10]; RAW264.7, 24 h) [µM]	IC50 [11] [µM]	IC50 ([10]; 50% reduction in NO synthesis by IFNγ-activated RAW264.7 cells, 24 h) [µM]
CCN(CC)CCCNC[C@]1(O)CC[C@]2(C)C3CC(=O)[C@@]4(C)C(CC[C@@H]4[C@H](C)CCC(=O)OC)[C@@H]3CC[C@@H]2C1 (stereo partly drawn) [Compound 6]	6.2	3.7 ± 0.17	6.8 ± 0.3	0.9	0.9	6.7 ± 0.6	1.7	6.7 ± 0.5	0.9	1 ± 0.6	1 to 6.8	> 10	6.2 ± 0.4	
COC(=O)CC[C@@H](C)[C@H]1CC[C@H]2[C@@H]3CC[C@@H]4C[C@H](O)CC[C@]4(C)[C@H]3CC(=O)[C@]12C [Compound 11, methyl 3α-hydroxy-12-oxo-5β-cholan-24-oate]		25.7 ± 3.6		1		> 100	>3.9	> 100		> 100	≥ 25.7	50.9 ± 5.9	> 100	
COC(=O)CC[C@@H](C)[C@H]1CCC2[C@@H]3CC[C@@H]4C[C@](O)(CNCCCN(C)C)CC[C@]4(C)C3CC(=O)[C@@]21C (stereo partly drawn) [Compound 3]	2.2	4 ± 0.2	6.8 ± 0.1	1	1.1	5.9 ± 0.5	1.6	6.7 ± 0.4	1	3 ± 0.4	3 to 6.8	> 10	6.5 ± 0.5	
C[C@H](CCC(=O)O)[C@H]1CC[C@H]2[C@@H]3CC[C@@H]4C[C@H](O)CC[C@]4(C)[C@H]3C[C@H](O)[C@]12C [DCA, deoxycholic acid]		> 100		1		> 100		> 100		82.9 ± 1.9	≥ 82.9		> 100	83.6 ± 1.6
COC(=O)CC[C@@H](C)[C@H]1CCC2[C@@H]3CC[C@@H]4C[C@@]5(CC[C@]4(C)C3CC(=O)[C@@]21C)CO5 (stereo partly drawn) [Compound 1, methyl 3β-oxirane-12-oxo-5β-cholan-24-oate]	1.6	43.5 ± 1.9				27.9 ± 2.5		> 100	<0.5	17 ± 1.6	≥ 17	16.4 ± 0.9	53.9 ± 3.3	
COC(=O)CC[C@@H](C)[C@H]1CCC2[C@@H]3CC[C@@H]4C[C@](O)(CNCCN(C)C)CC[C@]4(C)C3CC(=O)[C@@]21C (stereo partly drawn) [Compound 2]	3.6	8 ± 0.9	36 ± 0.7	0.7	1	26.2 ± 0.8	3.2	21.7 ± 0.87	1.2	7.1 ± 0.6	7.1 to 36	> 10	25.4 ± 2.2	
COC(=O)CC[C@@H](C)[C@H]1CCC2[C@@H]3CC[C@@H]4C[C@](O)(CN5CCN(C)CC5)CC[C@]4(C)C3CC(=O)[C@@]21C (stereo partly drawn) [Compound 4]	6.9	3.6 ± 0.7	21.6 ± 2.5	1.5	1.4	23.5 ± 1.7	9	20.4 ± 0.4	1.6	4.7 ± 0.2		> 10	32.5 ± 1.4	
CCN(CC)CCNC[C@]1(O)CC[C@]2(C)C3CC(=O)[C@@]4(C)C(CC[C@@H]4[C@H](C)CCC(=O)OC)[C@@H]3CC[C@@H]2C1 (stereo partly drawn) [Compound 5]	2.2	4.3 ± 0.3	25.5 ± 0.8	0.3	0.3	21.6 ± 3.4	1.7	20.9 ± 2.1	0.4	3.3 ± 0.1	3.3 to 25.5	> 10	7.4 ± 1	
CCN1CCN(C[C@]2(O)CC[C@]3(C)C4CC(=O)[C@@]5(C)C(CC[C@@H]5[C@H](C)CCC(=O)OC)[C@@H]4CC[C@@H]3C2)CC1 (stereo partly drawn) [Compound 7]	2	3.8 ± 0.3	23.5 ± 3	0.7	0.6	28.6 ± 0.5	4.6	37.8 ± 1.7	0.5	8.3 ± 1.2		> 10	17.4 ± 1.6	
